In brackets after ≈: the same amount, converted by molar mass.

The test system of one experiment is Enterococcus faecalis. The experiment is described as follows: Antibacterial activity against Enterococcus faecalis ATCC 29212 after 24 hrs by broth microdilution method. Particulars: ATCC 29212, 24 h. It counts as functional. Background: Broth dilution looks for growth in wells or tubes with falling amounts of substance.
Experiment [1] concerns Staphylococcus aureus. The experiment is described as follows: Antibacterial activity against Staphylococcus aureus ATCC 25923 after 24 hrs by broth microdilution method. It counts as functional. Particulars: ATCC 25923, 24 h.
The subject of experiment [2] is Staphylococcus aureus. The experiment is described as follows: Antibacterial activity against Staphylococcus aureus ATCC 29213 after 24 hrs by broth microdilution method. Conditions: ATCC 29213, 24 h. The experiment is classed as functional.
The test system of the next experiment is Escherichia coli. The experiment is described as follows: Antibacterial activity against Escherichia coli ATCC 25922 after 24 hrs by broth microdilution method. It counts as functional. Particulars: ATCC 25922, 24 h.
Experiment [3] concerns MDA-MB-231. The experiment is described as follows: Antiproliferative activity against human MDA-MB-231 cells assessed as cell survival at 100 uM after 24 hrs by MTT assay relative to control. Particulars: MDA-MB-231, 24 h, read-out: Survival. It counts as functional. (Tetrazolium dyes change colour on reduction, which living cells bring about.)
The subject of another experiment is Pseudomonas aeruginosa. The experiment is described as follows: Antibacterial activity against Pseudomonas aeruginosa […] after 24 hrs by broth microdilution method. It counts as functional.
Experiment [4] deals with MDA-MB-231. The experiment is described as follows: Antiproliferative activity human MDA-MB-231 cells assessed as cell survival after 48 hrs by MTT assay. It counts as functional, cell-based. Conditions: MDA-MB-231, 48 h.
For experiment [5], the system named is MDA-MB-231. The experiment is described as follows: Antiproliferative activity against human MDA-MB-231 cells assessed as cell survival at 100 uM after 48 hrs by MTT assay relative to control. It counts as functional. Conditions: MDA-MB-231, 48 h, read-out: Survival.
The test system of experiment [6] is MDA-MB-231. The experiment is described as follows: Antiproliferative activity against human MDA-MB-231 cells assessed as cell survival at 25 uM after 48 hrs by MTT assay relative to control. It counts as functional. Particulars: MDA-MB-231, 48 h, read-out: Survival.

Regarding `Oc1ccc(-c2cnn(-c3ccccc3)n2)cc1`, the MIC worked out at 64 µg/mL (≈ 270 µM) against Enterococcus faecalis; 128 µg/mL (≈ 539 µM) in the experiment with Staphylococcus aureus [1]; 64 µg/mL (≈ 270 µM) in the experiment on Staphylococcus aureus [2]; 128 µg/mL (≈ 539 µM) with Escherichia coli; 128 µg/mL (≈ 539 µM) in the experiment with Pseudomonas aeruginosa. Also, the viability at 100 µM with MDA-MB-231 [3] stood at 102%.
For `FC(F)(F)Oc1ccc(-n2nccn2)cc1`, the MIC in the experiment on Enterococcus faecalis is 128 µg/mL (≈ 559 µM); in the experiment with Staphylococcus aureus [1] it was 256 µg/mL (≈ 1120 µM); against Staphylococcus aureus [2], 256 µg/mL (≈ 1120 µM); in the experiment on Escherichia coli it was 256 µg/mL (≈ 1120 µM); in the experiment with Pseudomonas aeruginosa it was 128 µg/mL (≈ 559 µM). In addition, the IC50 with MDA-MB-231 [4] was found to be 67 µM. The viability at 100 µM with MDA-MB-231 [3] stood at 58.5%; with MDA-MB-231 [5], 24%.
The compound `CN[C@H](CC(C)C)C(=O)N[C@H]1C(=O)N[C@@H](CC(N)=O)C(=O)N[C@H]2C(=O)N[C@H]3C(=O)N[C@H](C(=O)N[C@H](C(=O)O)c4cc(O)cc(O)c4-c4cc3ccc4O)[C@H](O)c3ccc(c(Cl)c3)Oc3cc2cc(c3O[C@@H]2O[C@H](CO)[C@@H](O)[C@H](O)[C@H]2O[C@H]2C[C@](C)(N)[C@H](O)[C@H](C)O2)Oc2ccc(cc2Cl)[C@H]1O` [VANCOMYCIN] yielded an MIC against Enterococcus faecalis of less than 1 µg/mL.
Consider `Oc1ccc(-c2cnn(-c3ccccc3-c3ccc(O)cc3)n2)cc1`, for which the MIC in the experiment on Enterococcus faecalis was 128 µg/mL (≈ 389 µM); in the experiment with Staphylococcus aureus [1], 128 µg/mL (≈ 389 µM); with Staphylococcus aureus [2], 128 µg/mL (≈ 389 µM); with Escherichia coli it was 128 µg/mL (≈ 389 µM); in the experiment on Pseudomonas aeruginosa, 64 µg/mL (≈ 194 µM). In the experiment with MDA-MB-231 [4], the IC50 is 40 µM. The values for the viability at 100 µM with MDA-MB-231 [3] and with MDA-MB-231 [5] were 54.5% and 11%, respectively.
On to `Oc1ccc(/C=C/c2cc(O)cc(O)c2)cc1` [RESVERATROL], for which the IC50 in the experiment with MDA-MB-231 [4] is 130 µM. Also, the values for the viability at 100 µM in the experiment on MDA-MB-231 [3] and with MDA-MB-231 [5] were 93.4% and 60.3%, respectively.
Consider `Nc1ccc(-c2cnn(-c3ccccc3)n2)cc1`, for which the MIC stood at 128 µg/mL (≈ 542 µM) with Enterococcus faecalis; 256 µg/mL (≈ 1080 µM) in the experiment on Staphylococcus aureus [1]; 256 µg/mL (≈ 1080 µM) against Staphylococcus aureus [2]; 128 µg/mL (≈ 542 µM) in the experiment with Escherichia coli; 64 µg/mL (≈ 271 µM) against Pseudomonas aeruginosa. For the same compound, in the experiment on MDA-MB-231 [3], the viability at 100 µM was 66%.
In the case of `Nc1ccc(-c2cnn(-c3ccccc3-c3ccc(N)cc3)n2)cc1`, the viability at 25 µM with MDA-MB-231 [6] was 22%. The MIC in the experiment on Enterococcus faecalis was 128 µg/mL (≈ 391 µM); against Staphylococcus aureus [1], 64 µg/mL (≈ 195 µM); against Staphylococcus aureus [2], 128 µg/mL (≈ 391 µM); with Escherichia coli it was 128 µg/mL (≈ 391 µM); against Pseudomonas aeruginosa it was 128 µg/mL (≈ 391 µM). Further, the IC50 with MDA-MB-231 [4] was 17.5 µM. In addition, the results for the viability at 100 µM in the experiment on MDA-MB-231 [3] and in the experiment with MDA-MB-231 [5] were 44% and 2.5%, respectively.
Take `c1ccc(-c2cnn(-c3ccccc3-c3ccccc3)n2)cc1`: the minimal inhibitory concentration (MIC) in the experiment on Enterococcus faecalis is 128 µg/mL (≈ 430 µM); against Staphylococcus aureus [1] it was 256 µg/mL (≈ 861 µM); against Staphylococcus aureus [2], 128 µg/mL (≈ 430 µM); in the experiment with Escherichia coli, 256 µg/mL (≈ 861 µM); with Pseudomonas aeruginosa it was 128 µg/mL (≈ 430 µM). The IC50 in the experiment with MDA-MB-231 [4] came out at 52 µM. The figures for the viability at 100 µM with MDA-MB-231 [3] and in the experiment on MDA-MB-231 [5] were 49% and 23%, respectively.
Turning to `COc1ccc(-c2cnn(-c3ccccc3-c3ccc(OC)cc3)n2)cc1`, the MIC against Enterococcus faecalis, with Staphylococcus aureus [1], against Staphylococcus aureus [2], in the experiment with Escherichia coli and against Pseudomonas aeruginosa was 256 µg/mL (≈ 716 µM) each time. Also, the viability at 100 µM with MDA-MB-231 [3] worked out at 75%.
Regarding `Clc1cccc(-c2cnn(-c3ccccc3-c3cccc(Cl)c3)n2)c1`, the MIC with Enterococcus faecalis is 256 µg/mL (≈ 699 µM); against Staphylococcus aureus [1], 128 µg/mL (≈ 349 µM); in the experiment on Staphylococcus aureus [2] it was 256 µg/mL (≈ 699 µM); against Escherichia coli it was 128 µg/mL (≈ 349 µM); against Pseudomonas aeruginosa it was 128 µg/mL (≈ 349 µM). In addition, in the experiment with MDA-MB-231 [4], the IC50 was 45.5 µM. In addition, the viability at 100 µM amounted to 40.5% in the experiment on MDA-MB-231 [3] and 11% in the experiment with MDA-MB-231 [5].
For `Cc1onc(-c2ccccc2)c1C(=O)N[C@@H]1C(=O)N2[C@@H]1SC(C)(C)[C@@H]2C(=O)O` [OXACILLIN], the MIC in the experiment on Staphylococcus aureus [1] and in the experiment with Staphylococcus aureus [2] was less than 1 µg/mL throughout.
Compound `CC1(C)S[C@@H]2[C@H](NC(=O)[C@H](N)c3ccc(O)cc3)C(=O)N2[C@H]1C(=O)O` [AMOXICILLIN] gave an MIC with Escherichia coli of 4 µg/mL (≈ 10.9 µM).
For the compound `CC1(C)S[C@@H]2[C@H](NC(=O)[C@H](C(=O)O)c3ccsc3)C(=O)N2[C@H]1C(=O)O` [TICARCILLIN], it took 8 µg/mL (≈ 20.8 µM) to inhibit growth in the experiment on Pseudomonas aeruginosa (MIC).
For the compound `COc1ccc(OC)c(-c2cnn(-c3ccccc3)n2)c1`, the MIC came out at 128 µg/mL (≈ 455 µM) with Enterococcus faecalis; 256 µg/mL (≈ 910 µM) against Staphylococcus aureus [1]; 128 µg/mL (≈ 455 µM) in the experiment with Staphylococcus aureus [2]; 128 µg/mL (≈ 455 µM) in the experiment on Escherichia coli; 128 µg/mL (≈ 455 µM) against Pseudomonas aeruginosa. The viability at 100 µM with MDA-MB-231 [3] is 94%.
Consider `c1ccc(-c2cnn(-c3ccccc3)n2)cc1`, for which the MIC in the experiment with Enterococcus faecalis was 128 µg/mL (≈ 578 µM); with Staphylococcus aureus [1], 256 µg/mL (≈ 1160 µM); in the experiment with Staphylococcus aureus [2], more than 256 µg/mL; against Escherichia coli it was 128 µg/mL (≈ 578 µM); in the experiment on Pseudomonas aeruginosa it was 128 µg/mL (≈ 578 µM). The viability at 100 µM with MDA-MB-231 [3] came out at 85.5%.

A word on the MIC: it is the lowest concentration that inhibits growth of the organism. Read a high MIC as a need for much substance. The IC50 is the concentration that gives 50% inhibition.

The record behind these values is ChEMBL document CHEMBL3612010, “Deprotometalation-iodolysis and computed CH acidity of 1,2,3- and 1,2,4-triazoles. Application to the synthesis of resveratrol analogues” (Bioorg Med Chem, 2015).
